The results in this text go back to patent US20250213555A1, “SUBSTITUTED TETRAHYDROFURAN ANALOGS AS MODULATORS OF SODIUM CHANNELS” (VERTEX PHARMACEUTICALS INCORPORATED, priority 2021, published 2025).

pIC50: −log10 of the molar value. Bounds are passed on as bounds.

What is called pIC50 is the IC50 on a negative log10 scale, so that one unit is a factor of ten.

This assay deals with human Nav 1.8 (Homo sapiens, UniProt Q9Y5Y9). The assay can be described thus: E-VIPR assay detecting and measuring Nav inhibition properties. The assay is classed as cell-based. As to conditions: HEK cells expressing a truncated form of human Nav 1.8; compound numbers without "*" (not marked as run in the presence of human serum); read-out: measured IC50 value in the E-VIPR Assay. The method, boiled down: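 Nav inhibition was read by E-VIPR: cells were electrically stimulated while coumarin/oxonol FRET emissions were recorded. Cells were HEK expressing a truncated human Nav 1.8 and co-transduced with KIR2.1, and were assayed in 25% final human serum.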
Chain of human Nav 1.8 (Q9Y5Y9 126-399 limits assumed): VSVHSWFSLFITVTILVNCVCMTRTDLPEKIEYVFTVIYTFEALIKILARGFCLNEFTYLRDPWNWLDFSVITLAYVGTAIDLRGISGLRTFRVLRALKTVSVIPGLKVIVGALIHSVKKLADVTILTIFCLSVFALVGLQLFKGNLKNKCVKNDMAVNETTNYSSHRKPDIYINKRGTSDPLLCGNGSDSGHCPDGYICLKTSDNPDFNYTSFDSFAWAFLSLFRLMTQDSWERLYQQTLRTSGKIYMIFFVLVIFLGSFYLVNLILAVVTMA
Chain of human Nav 1.8 (Q9Y5Y9 660-890 limits assumed): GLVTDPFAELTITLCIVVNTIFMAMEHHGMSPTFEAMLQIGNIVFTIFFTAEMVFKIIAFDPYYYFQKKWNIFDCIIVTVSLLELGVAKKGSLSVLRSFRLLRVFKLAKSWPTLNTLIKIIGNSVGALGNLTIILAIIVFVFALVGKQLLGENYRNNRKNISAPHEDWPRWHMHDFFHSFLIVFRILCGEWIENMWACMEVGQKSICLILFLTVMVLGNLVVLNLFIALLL
Chain of human Nav 1.8 (Q9Y5Y9 1148-1722 limits assumed): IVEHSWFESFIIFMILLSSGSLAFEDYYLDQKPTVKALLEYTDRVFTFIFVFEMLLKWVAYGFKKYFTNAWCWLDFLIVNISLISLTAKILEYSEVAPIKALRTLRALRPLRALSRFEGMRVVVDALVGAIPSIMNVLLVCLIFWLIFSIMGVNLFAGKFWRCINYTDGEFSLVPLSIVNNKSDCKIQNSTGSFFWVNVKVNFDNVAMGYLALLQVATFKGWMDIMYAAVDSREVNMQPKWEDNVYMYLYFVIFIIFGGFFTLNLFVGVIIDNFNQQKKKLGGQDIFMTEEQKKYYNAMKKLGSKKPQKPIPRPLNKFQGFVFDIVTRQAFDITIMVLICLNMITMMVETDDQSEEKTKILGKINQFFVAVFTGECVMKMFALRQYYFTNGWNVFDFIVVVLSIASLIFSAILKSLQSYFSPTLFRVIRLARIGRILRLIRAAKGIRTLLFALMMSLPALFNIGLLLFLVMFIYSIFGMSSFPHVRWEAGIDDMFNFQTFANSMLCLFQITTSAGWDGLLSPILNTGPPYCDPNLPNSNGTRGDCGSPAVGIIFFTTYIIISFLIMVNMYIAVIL
Consider `C[C@H]1[C@@H](c2ccc(F)c(F)c2OC2CC(F)(F)C2)[C@H](C(=O)Nc2ccnc(C(N)=O)c2)O[C@@]1(C)C(F)(F)F` [Compound 173, 4-((2R,3S,4S,5R)-3-(2-(3,3-difluorocyclobutoxy)-3,4-difluorophenyl)-4,5-dimethyl-5-(trifluoromethyl)tetrahydrofuran-2-carboxamido)picolinamide], for which the pIC50 is above 8.00. With `C[C@H]1[C@@H](c2ccc(F)c(F)c2OC2CC(C)(O)C2)[C@H](C(=O)Nc2ccnc(C(N)=O)c2)O[C@@]1(C)C(F)(F)F` (stereo partly drawn) [Compound 174, 4-((2R,3S,4S,5R)-3-(3,4-difluoro-2-(3-hydroxy-3-methylcyclobutoxy)phenyl)-4,5-dimethyl-5-(trifluoromethyl)tetrahydrofuran-2-carboxamido)picolinamide], the pIC50 was above 8.00. Turning to `C[C@H]1[C@@H](c2ccc(F)c(F)c2OC2CCC(O)C2)[C@H](C(=O)Nc2ccnc(C(N)=O)c2)O[C@@]1(C)C(F)(F)F` (stereo partly drawn) [Compound 175, 4-((2R,3S,4S,5R)-3-(3,4-difluoro-2-((3-hydroxycyclopentyl)oxy)phenyl)-4,5-dimethyl-5-(trifluoromethyl)tetrahydrofuran-2-carboxamido)picolinamide], the pIC50 was above 8.00. With `C[C@H]1[C@@H](c2cc(Br)c(F)c(F)c2O)[C@H](C(=O)Nc2ccnc(C(N)=O)c2)O[C@@]1(C)C(F)(F)F` [Compound 176, 4-((2R,3S,4S,5R)-3-(5-bromo-3,4-difluoro-2-hydroxyphenyl)-4,5-dimethyl-5-(trifluoromethyl)tetrahydrofuran-2-carboxamido)picolinamide] the figure was at most 6.00. The result for `COc1c([C@H]2[C@H](C(=O)Nc3ccnc(C(N)=O)c3)O[C@@](C)(C(F)(F)F)[C@H]2C)cc(OCc2ccccc2)c(F)c1F` [Compound 177, 4-((2R,3S,4S,5R)-3-(5-(benzyloxy)-3,4-difluoro-2-methoxyphenyl)-4,5-dimethyl-5-(trifluoromethyl)tetrahydrofuran-2-carboxamido) picolinamide] reads above 8.00; that for `COc1c([C@H]2[C@H](C(=O)Nc3ccnc(C(N)=O)c3)O[C@@](C)(C(F)(F)F)[C@H]2C)cc(O)c(F)c1F` [Compound 178, 4-((2R,3S,4S,5R)-3-(3,4-difluoro-5-hydroxy-2-methoxyphenyl)-4,5-dimethyl-5-(trifluoromethyl)tetrahydrofuran-2-carboxamido) picolinamide], above 8.00. In the case of `COc1c([C@H]2[C@H](C(=O)Nc3ccnc(C(N)=O)c3)O[C@@](C)(C(F)(F)F)[C@H]2C)cc(OC2CC(F)(F)C2)c(F)c1F` [Compound 179, 4-((2R,3S,4S,5R)-3-(5-(3,3-difluorocyclobutoxy)-3,4-difluoro-2-methoxyphenyl)-4,5-dimethyl-5-(trifluoromethyl)tetrahydrofuran-2-carboxamido) picolinamide], the pIC50 was 6.00 to 7.00. For `Cc1cnc(C(N)=O)cc1NC(=O)[C@@H]1O[C@@](C)(C(F)(F)F)[C@@H](C)[C@H]1c1ccc(F)c(F)c1OCCN1CC2(COC2)C1` [Compound 181, 4-((2R,3S,4S,5R)-3-(2-(2-(2-oxa-6-azaspiro[3.3]heptan-6-yl)ethoxy)-3,4-difluorophenyl)-4,5-dimethyl-5-(trifluoromethyl)tetrahydrofuran-2-carboxamido)-5-methylpicolinamide], the pIC50 is 7.00 to 8.00. With `C[C@H]1[C@@H](c2ccc(F)c(F)c2OCC(=NO)C2CC2)[C@H](C(=O)Nc2ccnc(C(N)=O)c2)O[C@@]1(C)C(F)(F)F` [Compound 182, 4-((2R,3S,4S,5R)-3-(2-(2-cyclopropyl-2-(hydroxyimino)ethoxy)-3,4-difluorophenyl)-4,5-dimethyl-5-(trifluoromethyl)tetrahydrofuran-2-carboxamido) picolinamide] the figure was above 8.00; with `C/C(COc1c([C@H]2[C@H](C(=O)Nc3ccnc(C(N)=O)c3)O[C@@](C)(C(F)(F)F)[C@H]2C)ccc(F)c1F)=N\O` [Compound 185, 4-((2R,3S,4S,5R)-3-(3,4-difluoro-2-((E)-2-(hydroxyimino)propoxy)phenyl)-4,5-dimethyl-5-(trifluoromethyl)tetrahydrofuran-2-carboxamido)picolinamide], above 8.00. With `CC(C)C(COc1c([C@H]2[C@H](C(=O)Nc3ccnc(C(N)=O)c3)O[C@@](C)(C(F)(F)F)[C@H]2C)ccc(F)c1F)=NO` [Compound 186, 4-((2R,3S,4S,5R)-3-(3,4-difluoro-2-(2-(hydroxyimino)-3-methylbutoxy)phenyl)-4,5-dimethyl-5-(trifluoromethyl)tetrahydrofuran-2-carboxamido)picolinamide] the figure was above 8.00; with `C[C@H]1[C@@H](c2ccc(F)c(F)c2OC/C(=N\O)C(C)(C)C)[C@H](C(=O)Nc2ccnc(C(N)=O)c2)O[C@@]1(C)C(F)(F)F` [Compound 189, 4-((2R,3S,4S,5R)-3-(3,4-difluoro-2-((Z)-2-(hydroxyimino)-3,3-dimethylbutoxy)phenyl)-4,5-dimethyl-5-(trifluoromethyl)tetrahydrofuran-2-carboxamido)picolinamide], above 8.00; with `C[C@H]1[C@@H](c2ccc(F)c(F)c2OCC(=NO)C2(F)CC2)[C@H](C(=O)Nc2ccnc(C(N)=O)c2)O[C@@]1(C)C(F)(F)F` [Compound 190, 4-((2R,3S,4S,5R)-3-(3,4-difluoro-2-(2-(1-fluorocyclopropyl)-2-(hydroxyimino)ethoxy)phenyl)-4,5-dimethyl-5-(trifluoromethyl)tetrahydrofuran-2-carboxamido)picolinamide], above 8.00. Turning to `C[C@H]1[C@@H](c2ccc(F)c(F)c2OCC(=NO)C2CCC2)[C@H](C(=O)Nc2ccnc(C(N)=O)c2)O[C@@]1(C)C(F)(F)F` [Compound 191, 4-((2R,3S,4S,5R)-3-(2-(2-cyclobutyl-2-(hydroxyimino)ethoxy)-3,4-difluorophenyl)-4,5-dimethyl-5-(trifluoromethyl)tetrahydrofuran-2-carboxamido)picolinamide], the pIC50 is above 8.00. With `C[C@H]1[C@@H](c2ccc(F)c(F)c2OC2CC(=NO)C2)[C@H](C(=O)Nc2ccnc(C(N)=O)c2)O[C@@]1(C)C(F)(F)F` (stereo partly drawn) [Compound 192, 4-((2R,3S,4S,5R)-3-(3,4-difluoro-2-(3-(hydroxyimino)cyclobutoxy)phenyl)-4,5-dimethyl-5-(trifluoromethyl)tetrahydrofuran-2-carboxamido)picolinamide] the figure was above 8.00.

`CON=C(C)COc1c([C@H]2[C@H](C(=O)Nc3ccnc(C(N)=O)c3)O[C@@](C)(C(F)(F)F)[C@H]2C)ccc(F)c1F` [Compound 193, 4-((2R,3S,4S,5R)-3-(3,4-difluoro-2-(2-(methoxyimino)propoxy)phenyl)-4,5-dimethyl-5-(trifluoromethyl)tetrahydrofuran-2-carboxamido)picolinamide]: the pIC50 was above 8.00. With `CC(COc1c([C@H]2[C@H](C(=O)Nc3ccnc(C(N)=O)c3)O[C@@](C)(C(F)(F)F)[C@H]2C)cccc1C(F)(F)F)=NO` [Compound 196, 4-((2R,3S,4S,5R)-3-(2-(2-(hydroxyimino)propoxy)-3-(trifluoromethyl)phenyl)-4,5-dimethyl-5-(trifluoromethyl)tetrahydrofuran-2-carboxamido)picolinamide] the figure was above 8.00.
